From patent publication US11230532B2, “Pyrimidines and variants thereof, and uses therefor” (Afferent Pharmaceuticals Inc., priority 2016, dated 2022)

How the values were obtained:
[1] = biological target: T1, human P2X3 receptor (homomeric P2X3 channels) (Homo sapiens, UniProt P56373); test: FlexStation calcium fluorescence assay, homomeric P2X3 channels (HEK-hP2X3 cells); type: cell-based; settings: for Selectivity, X = S: potency ratio P2X3 over P2X2/3; for IC50: HEK293 cells stably transfected with human P2X3, agonist 1 μM α,β-meATP, highest concentration tested 10 μM, read-out: Average pIC50 P2X3 (converted); for Selectivity P2X3/P2X2/3: potency ratio P2X3 over P2X2/3 from pIC50s
T1 construct: expressed in transfected cells; host or cells: HEK293 human embryonic kidney cells (HEK-hP2X3)
T1 sequence (P56373 1-397): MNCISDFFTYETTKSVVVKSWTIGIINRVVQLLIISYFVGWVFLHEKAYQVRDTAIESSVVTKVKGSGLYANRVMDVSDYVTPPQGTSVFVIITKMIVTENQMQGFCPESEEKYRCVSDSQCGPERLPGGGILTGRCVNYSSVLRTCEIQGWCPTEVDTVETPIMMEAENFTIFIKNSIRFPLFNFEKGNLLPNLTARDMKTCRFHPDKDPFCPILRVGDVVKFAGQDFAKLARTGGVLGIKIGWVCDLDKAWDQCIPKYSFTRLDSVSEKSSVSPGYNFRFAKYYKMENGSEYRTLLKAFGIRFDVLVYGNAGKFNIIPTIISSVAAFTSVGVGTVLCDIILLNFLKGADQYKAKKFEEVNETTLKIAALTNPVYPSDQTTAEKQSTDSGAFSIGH
Procedure: (§1) 1321N1 human astrocytoma and HEK293 human embryonic kidney cells were stably transfected with human P2X2 and P2X3 receptor subunits to form heteromeric P2X2/3 channels and passaged in flasks. Additionally, HEK293 cells were stably transfected with human P2X3 receptor subunits to form homomeric P2X3 channels.
(§2) Approximately 24 hours before the FlexStation calcium fluorescence experiment, cells were released from their flasks, centrifuged and re-suspended in nutrient medium. The cells were aliquoted into black-wall, clear-bottom 96 well plates at a density of 25,000 cells per well and incubated overnight in a humidified, CO2-enriched (5%) atmosphere at 37° C.
(§3) On the day of the experiment, cells were washed with assay buffer (calcium- and magnesium-free Hank's balanced salt solution, 20 mM HEPES, 2 mM CaCl2; AB) and loaded with 4 μM Fluo-4 (P2X2/3) or Calcium 6 (Molecular Devices, according to manufacturer's instructions; P2X3) calcium-sensitive fluorescent dye in 100 μL AB.
(§4) After 1 hour of dye loading at 37° C., 1321N1-hP2X2/3 cells were washed two times with AB and test compound or vehicle added to each well in a total volume of 150 μL AB. HEK-hP2X3 cells were not washed because the Calcium 6 dye kit includes an extracellular dye that quenches unabsorbed Calcium 6 dye; test compound or vehicle were added directly to the assay plates to achieve the appropriate concentration of test compound in a total volume of 150 μL AB.
(§5) After 20 minutes incubation at RT and protected from light, the assay plates were loaded into the FlexStation microplate reader and baseline fluorescence measured with an excitation wavelength of 485 nm and emission wavelength readings centered at 525 nm (515 nm cut off).
(§6) The agonist was dispensed by the FlexStation during fluorescence measurement to construct agonist activation and antagonist inhibition curves. The final agonist concentration for inhibition was 1 μM α,β-meATP for P2X3 and 3 μM ATP for P2X2/3. Peak fluorescence was measured and curves generated using a four parameter nonlinear regression equation.

[2] = biological target: T2, human P2X2/3 receptor (heteromeric P2X2/3 channels) (Homo sapiens, UniProt P56373+Q9UBL9); test: FlexStation calcium fluorescence assay, heteromeric P2X2/3 channels (1321N1-hP2X2/3 cells); type: cell-based; settings: agonist 3 μM ATP, highest concentration tested 10 μM, read-out: Average pIC50 P2X2/3 (converted)
T2 construct: expressed in transfected cells; host or cells: 1321N1 human astrocytoma cells (1321N1-hP2X2/3)
T2 sequence (P56373 1-397): T1 sequence (P56373 1-397)
T2 sequence (Q9UBL9 1-471): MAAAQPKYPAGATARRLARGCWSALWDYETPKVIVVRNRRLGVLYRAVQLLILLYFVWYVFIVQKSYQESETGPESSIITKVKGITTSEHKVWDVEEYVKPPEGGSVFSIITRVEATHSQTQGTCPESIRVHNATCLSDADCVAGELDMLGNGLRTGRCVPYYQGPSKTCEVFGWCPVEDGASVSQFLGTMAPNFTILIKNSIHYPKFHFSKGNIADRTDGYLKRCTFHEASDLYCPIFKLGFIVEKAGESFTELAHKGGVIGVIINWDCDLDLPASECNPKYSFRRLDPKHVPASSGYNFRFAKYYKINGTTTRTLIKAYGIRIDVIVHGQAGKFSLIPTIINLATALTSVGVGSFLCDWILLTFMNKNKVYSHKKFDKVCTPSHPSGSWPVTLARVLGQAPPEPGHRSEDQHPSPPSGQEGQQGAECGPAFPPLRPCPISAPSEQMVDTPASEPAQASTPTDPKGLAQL
Procedure: as §1, §2, §3, §4, §5, §6

COc1cc(Sc2cnc(N)nc2N)c(C(C)C)cc1OC [A, X = S]
Selectivity, X = S [1]: >100

COc1cc(C(C)C)c(Sc2cnc(N)nc2N)cc1I [B, X = S]
Selectivity, X = S [1]: 48

COc1cc(C(C)C)c(Sc2cnc(N)nc2N)cc1S(C)(=O)=O [C, X = S]
Selectivity, X = S [1]: >18

COc1cc(C(C)C)c([S+]([O-])c2cnc(N)nc2N)cc1OC (stereo not drawn) [Comparative Compound 1, reference compound]
IC50 [2]: > 10 µM
IC50 [1]: > 10 µM

COc1cc(C(C)C)c(S(=O)(=O)c2cnc(N)nc2N)cc1OC [Comparative Compound 2, reference compound]
IC50 [2]: > 10 µM
IC50 [1]: > 10 µM

COc1cc(Sc2cnc(N)nc2N)c(C(C)C)cc1OC [Compound 1]
Selectivity, X = S [1]: greater than 100
Selectivity P2X3/P2X2/3 [1]: >100

COc1cc(C(C)C)c(Sc2cnc(N)nc2N)cc1S(C)(=O)=O [Compound 2]
Selectivity P2X3/P2X2/3 [1]: >18

COc1cc(C(C)C)c(Sc2cnc(N)nc2N)cc1S(N)(=O)=O [Compound 3]
Selectivity P2X3/P2X2/3 [1]: >67

COc1cc(C(C)C)c(Sc2cnc(N)nc2N)cc1I [Compound 4]
Selectivity P2X3/P2X2/3 [1]: 48

C#Cc1cc(Sc2cnc(N)nc2N)c(C(C)C)cc1OC [Compound 5]
Selectivity P2X3/P2X2/3 [1]: 97

CC#Cc1cc(Sc2cnc(N)nc2N)c(C(C)C)cc1OC [Compound 6]
Selectivity P2X3/P2X2/3 [1]: >13

COc1cc(C(C)C)c(Sc2cnc(N)nc2N)cc1C [Compound 7]
Selectivity P2X3/P2X2/3 [1]: >34

COc1cc(C(C)C)c(Sc2cnc(N)nc2N)cc1Br [Compound 8]
Selectivity P2X3/P2X2/3 [1]: >47

COc1cc(C(C)C)c(Sc2cnc(N)nc2N)cc1Cl [Compound 9]
Selectivity P2X3/P2X2/3 [1]: >56

COc1cc(C(C)C)c(Sc2cnc(N)nc2N)cc1-c1nnn[nH]1 [Compound 11]
Selectivity P2X3/P2X2/3 [1]: >58

COc1cc(C(C)C)c(Sc2cnc(N)nc2N)cc1C(=O)O [Compound 12]
Selectivity P2X3/P2X2/3 [1]: >2

COc1cc(Oc2cnc(N)nc2N)c(C(C)C)nc1OC [Compound 13]
Selectivity P2X3/P2X2/3 [1]: 5.2

COc1ccc(Oc2cnc(N)nc2N)c(C(C)C)n1 [Compound 14]
Selectivity P2X3/P2X2/3 [1]: >7.1

COc1nc(C(C)C)c(Oc2cnc(N)nc2N)cc1S(C)(=O)=O [Compound 16]
Selectivity P2X3/P2X2/3 [1]: >145

COc1nc(C(C)C)c(Oc2cnc(N)nc2N)cc1C#N [Compound 17]
Selectivity P2X3/P2X2/3 [1]: >10

COc1nc(C(C)C)c(Oc2cnc(N)nc2N)cc1C(F)(F)F [Compound 18]
Selectivity P2X3/P2X2/3 [1]: 23

C#Cc1cc(Oc2cnc(N)nc2N)c(C(C)C)nc1OC [Compound 19]
Selectivity P2X3/P2X2/3 [1]: 28

COc1nc(C(C)C)c(Oc2cnc(N)nc2N)cc1S(N)(=O)=O [Compound 20]
Selectivity P2X3/P2X2/3 [1]: 19

CCc1cc(OC)c(I)cc1Sc1cnc(N)nc1N [Compound 21]
IC50 [2]: > 10 µM
IC50 [1]: 0.398 µM
Selectivity P2X3/P2X2/3 [1]: >24

CCc1cc(OC)c(S(C)(=O)=O)cc1Sc1cnc(N)nc1N [Compound 22]
IC50 [2]: > 10 µM
IC50 [1]: 3.98 µM
Selectivity P2X3/P2X2/3 [1]: >3

COc1ccc(Sc2cnc(N)nc2N)c(C(C)C)n1 [Compound 23]
IC50 [2]: > 10 µM
IC50 [1]: 3.98 µM
Selectivity P2X3/P2X2/3 [1]: >3

COc1nc(C(C)C)c(Sc2cnc(N)nc2N)cc1Br [Compound 24]
IC50 [2]: 0.398 µM
IC50 [1]: 0.1 µM
Selectivity P2X3/P2X2/3 [1]: 4

COc1nc(C(C)C)c(Sc2cnc(N)nc2N)cc1S(C)(=O)=O [Compound 25]
IC50 [2]: > 10 µM
IC50 [1]: 0.2 µM
Selectivity P2X3/P2X2/3 [1]: >52

COc1nc(C(C)C)c(Sc2cnc(N)nc2N)cc1C#N [Compound 26]
IC50 [2]: > 10 µM
IC50 [1]: 7.94 µM
Selectivity P2X3/P2X2/3 [1]: >1

COc1nc(C(C)C)c(Sc2cnc(N)nc2N)cc1S(N)(=O)=O [Compound 27]
IC50 [2]: 0.631 µM
IC50 [1]: 0.0794 µM
Selectivity P2X3/P2X2/3 [1]: 7.3

CC#Cc1cc(Sc2cnc(N)nc2N)c(C(C)C)nc1OC [Compound 28]
IC50 [2]: 6.31 µM
IC50 [1]: 0.794 µM
Selectivity P2X3/P2X2/3 [1]: 7.2

COc1cc(C(C)C)c(Sc2cnc(N)nc2N)cc1Cl [D, X = S]
Selectivity, X = S [1]: >50
